Reference: US20240174670A1, “4-AMINO-6-OXO-PYRIDAZINE DERIVATIVES MODULATING NLRP3” (JANSSEN PHARMACEUTICA NV, priority 2021, published 2024)

Columns and labels:
[1] = system: IL-1β; test: PBMC assay, IL-1β release after LPS stimulation; type: cell-based; conditions: human PBMCs, 30 min preincubation, 100 ng/ml LPS for 6 hrs, supernatant, MSD technology, read-out: IL1β AC50
Experimental: The activity of a compound according to the present invention can be assessed by in vitro methods.
(§1) Peripheral venous blood was collected from healthy individuals and human peripheral blood mononuclear cells (PBMCs) were isolated from blood by Ficoll-Histopaque (Sigma-Aldrich, A0561) density gradient centrifugation. After isolation, PBMCs were stored in liquid nitrogen for later use. Upon thawing, PBMC cell viability was determined in growth medium (RPMI media supplemented with 10% fetal bovine serum, 1% Pen-Strep and 1% L-glutamine). Compounds were spotted in a 1:3 serial dilution in DMSO and diluted to the final concentration in 30 μl medium in 96 well plates (Falcon, 353072). PBMCs were added at a density of 7.5×10^4 cells per well and incubated for 30 min in a 5% CO2 incubator at 37 ° C. LPS stimulation was performed by addition of 100 ng/ml LPS (final concentration, Invivogen, tlrl-smlps) for 6 hrs followed by collection of cellular supernatant and the analysis of IL-1β[…] and TNF cytokines levels (uμ) via MSD technology according to manufacturers' guidelines (MSD, K151A0H).
(§2) IC50 and AC50 values (for IL-1β) and EC50 and AC50 values (TNF) were obtained on compounds of the invention/examples, and the AC50 values are depicted in the following table: […]

[2] = system: TNF; test: PBMC assay, TNF release after LPS stimulation; type: cell-based; conditions: human PBMCs, 30 min preincubation, 100 ng/ml LPS for 6 hrs, supernatant, MSD technology
Experimental: as §1, §2

## CC(C)c1nn(CC(=O)Nc2ccc3nncn3c2)c(=O)cc1N1CC[C@@H](N(C)C)C1 [Compound 27]
[1]
  AC50: > 15 µM
[2]
  AC50: > 10 µM

## CC(C)c1nn(CC(=O)Nc2ccc3nncn3c2)c(=O)cc1N1CC2(C1)CC(F)(F)C2 [Compound 53]
[1]
  AC50: > 20 µM
[2]
  AC50: > 20 µM

## CC(C)c1nn(CC(=O)Nc2ccc3nncn3c2)c(=O)cc1N1CC[C@H](F)C1 [Compound 9]
[1]
  AC50: 2.49 µM
[2]
  AC50: > 10 µM

## CC(C)c1nn(CC(=O)Nc2ccc3nncn3c2)c(=O)cc1Nc1cnn(CC23CC(CO2)C3)c1C(F)(F)F [Compound 3]
[1]
  AC50: > 15 µM
[2]
  AC50: > 10 µM

## CC(C)c1nn(CC(=O)Nc2ccc3nncn3c2)c(=O)cc1N(C)C [Compound 30, 2-[4-(dimethylamino)-3-isopropyl-6-oxo-pyridazin-1-yl]-N-([1,2,4]triazolo[4,3-a]pyridin-6-yl)acetamide]
[1]
  AC50: > 15 µM
[2]
  AC50: > 10 µM

## CC(C)c1nn(CC(=O)Nc2ccc3nncn3c2)c(=O)cc1N1CCCCC1C (stereo not drawn) [Compound 54]
[1]
  AC50: 3.62 µM
[2]
  AC50: > 20 µM

## CO[C@@H]1CCN(c2cc(=O)n(CC(=O)Nc3ccc4nncn4c3)nc2C(C)C)C1 [Compound 17]
[1]
  AC50: 2.9 µM
[2]
  AC50: > 10 µM

## CC(C)c1nn(CC(=O)Nc2ccc3nncn3c2)c(=O)cc1N1CCC2(C1)CC2(F)F (stereo not drawn) [Compound 58]
[1]
  AC50: 0.89 µM
[2]
  AC50: > 20 µM

## CC(C)c1nn(CC(=O)Nc2ccc3nncn3c2)c(=O)cc1Nc1ccccc1 [Compound 1, 2-(4-anilino-3-isopropyl-6-oxo-pyridazin-1-yl)-N-([1,2,4]triazolo[4,3-a]pyridin-6-yl)acetamide]
[1]
  AC50: > 15 µM
[2]
  AC50: > 10 µM

## CC(C)c1nn(CC(=O)Nc2ccc3nncn3c2)c(=O)cc1N1CCC(c2ccncc2)C1 (stereo not drawn) [Compound 65]
[1]
  AC50: > 20 µM
[2]
  AC50: > 20 µM

## CC(C)c1nn(CC(=O)Nc2ccc3nncn3c2)c(=O)cc1Nc1cccc(C2CC2)n1 [Compound 38, N-([1,2,4]triazolo[4,3-a]pyridin-6-yl)-2-(4-((6-cyclopropylpyridin-2-yl)amino)-3-isopropyl-6-oxopyridazin-1(6H)-yl)acetamide]
[1]
  AC50: > 4 µM
[2]
  AC50: > 4 µM

## CC(C)c1nn(CC(=O)Nc2ccc3nncn3c2)c(=O)cc1N1CCC(F)(F)CC1 [Compound 12]
[1]
  AC50: > 15 µM
[2]
  AC50: > 10 µM
